The record followed here is US20100022491A1, “4-HYDROXY-2-OXO-2,3-DIHYDRO-1,3-BENZOTHIAZOL-7YL COMPOUNDS FOR MODULATION OF B2-ADRENORECEPTOR ACTIVITY” (ASTRAZENECA AB, priority 2006, published 2010).

The target in test [1] is T1, recombinant human α1D receptor (Homo sapiens, UniProt P25100).
T1 construct: expressed in transfected cells; host or cells: HEK293
T1 sequence (P25100 1-572): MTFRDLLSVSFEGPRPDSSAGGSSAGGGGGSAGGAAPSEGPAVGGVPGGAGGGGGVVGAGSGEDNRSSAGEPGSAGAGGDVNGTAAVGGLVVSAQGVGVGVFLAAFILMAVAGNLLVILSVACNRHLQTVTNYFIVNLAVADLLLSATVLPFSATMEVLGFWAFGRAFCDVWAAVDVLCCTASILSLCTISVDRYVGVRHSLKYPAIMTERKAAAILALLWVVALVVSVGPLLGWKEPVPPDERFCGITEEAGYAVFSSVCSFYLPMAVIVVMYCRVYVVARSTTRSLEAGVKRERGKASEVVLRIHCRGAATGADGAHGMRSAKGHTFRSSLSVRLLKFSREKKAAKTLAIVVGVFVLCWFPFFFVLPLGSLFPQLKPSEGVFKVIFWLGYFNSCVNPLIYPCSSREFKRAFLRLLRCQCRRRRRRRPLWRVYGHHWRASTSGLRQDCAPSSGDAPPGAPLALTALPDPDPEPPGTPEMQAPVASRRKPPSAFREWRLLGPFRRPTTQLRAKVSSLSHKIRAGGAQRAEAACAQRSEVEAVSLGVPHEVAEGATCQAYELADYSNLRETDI
Put plainly: Adrenergic α1D selectivity binding assay ([3H]-prazosin). The note with it: inhibition of [3H]-prazosin (0.3 nM) binding, HEK293 membranes; for IC50: read-out: α1 bind pIC50 (converted). On the procedure: Membranes were prepared from human embryonic kidney 293 (HEK293) cells expressing recombinant human α1D receptor. These were diluted in Assay Buffer (50 mM HEPES, 1 mM EDTA, 0.1% gelatin, pH 7.4) to provide a final concentration of membranes that gave a clear window between maximum and minimum specific binding.
(§1) Assays were performed in U-bottomed 96-well polypropylene plates. 10 μL [^3H]-prazosin (0.3 nM final concentration) and 10 μL of test compound (10× final concentration) were added to each test well. For each assay plate 8 replicates were obtained for [^3H]-prazosin binding in the presence of 10 μL vehicle (10% (v/v) DMSO in Assay Buffer; defining maximum binding) or 10 μL BMY7378 (10 μM final concentration; defining non-specific binding (NSB)). Membranes were then added to achieve a final volume of 100 μL. The plates were incubated for 2 hours at room temperature and then filtered onto PEI coated GF/B filter plates, pre-soaked for 1 hour in Assay Buffer, using a 96-well plate Tomtec cell harvester. Five washes with 250 μL wash buffer (50 mM HEPES, 1 mM EDTA, pH 7.4) were performed at 4° C. to remove unbound radioactivity. The plates were dried then sealed from underneath using Packard plate sealers and MicroScint-O (50 μL) was added to each well. The plates were sealed (TopSeal A) and filter-bound radioactivity was measured with a scintillation counter (TopCount, Packard BioScience) using a 3-minute counting protocol.
Total specific binding (B0) was determined by subtracting the mean NSB from the mean maximum binding. NSB values were also subtracted from values from all other wells. […] Data was fitted to a four parameter logistic equation to determine the compound potency, which was expressed as pIC50 (negative log molar concentration inducing 50% inhibition of [^3H]-prazosin binding).

Test [2] addresses T2, recombinant human adrenergic beta 1 receptors (Homo sapiens, UniProt P08588).
T2 construct: purchased Euroscreen
Put plainly: Adrenergic β1 selectivity binding assay ([125I]-Iodocyanopindolol). The note with it: inhibition of [125I]-Iodocyanopindolol (0.036 nM) binding; for IC50: read-out: β1 bind p IC50 (converted). On the procedure:
Membranes containing recombinant human adrenergic beta 1 receptors were obtained from Euroscreen. These were diluted in Assay Buffer (50 mM HEPES, 1 mM EDTA, 120 mM NaCl, 0.1% gelatin, pH 7.4) to provide a final concentration of membranes that gave a clear window between maximum and minimum specific binding.
as §1, with “[^125I]-Iodocyanopindolol (0.036” for “[^3H]-prazosin (0.3”, “[^125I]-Iodocyanopindolol” for “[^3H]-prazosin”, “Propranolol” for “BMY7378”, “EDTA, 120 mM NaCl,” for “EDTA,”
Total specific binding (B0) was determined by subtracting the mean NSB from the mean maximum binding. NSB values were also subtracted from values from all other wells. […] Data was fitted to a four parameter logistic equation to determine the compound potency, which was expressed as pIC50 (negative log molar concentration inducing 50% inhibition of [^125I]-Iodocyanopindolol binding).

Test [3] concerns the target T3, recombinant human Dopamine Subtype D2s receptors (Homo sapiens, UniProt P14416).
T3 construct: purchased Perkin Elmer
Put plainly: Dopamine D2 selectivity binding assay ([3H]-spiperone). The note with it: inhibition of [3H]-spiperone (0.16 nM) binding; for IC50: read-out: D2 bind pIC50 (converted). On the procedure:
Membranes containing recombinant human Dopamine Subtype D2s receptors were obtained from Perkin Elmer. These were diluted in Assay Buffer (50 mM HEPES, 1 mM EDTA, 120 mM NaCl, 0.1% gelatin, pH 7.4) to provide a final concentration of membranes that gave a clear window between maximum and minimum specific binding.
Assays were performed in U-bottomed 96-well polypropylene plates. 30 μL [^3H]-spiperone (0.16 nM final concentration) and 30 μL of test compound (10× final concentration) were added to each test well. For each assay plate 8 replicates were obtained for [^3H]-spiperone binding in the presence of 30 μL vehicle (10% (v/v) DMSO in Assay Buffer; defining maximum binding) or 30 μL Haloperidol (10 μM final concentration; defining non-specific binding (NSB)). Membranes were then added to achieve a final volume of 300 μL. The plates were incubated for 2 hours at room temperature and then filtered onto PEI coated GF/B filter plates, pre-soaked for 1 hour in Assay Buffer, using a 96-well plate Tomtec cell harvester. Five washes with 250 μL wash buffer (50 mM HEPES, 1 mM EDTA, 120 mM NaCl, pH 7.4) were performed at 4° C. to remove unbound radioactivity. The plates were dried then sealed from underneath using Packard plate sealers and MicroScint-O (50 μL) was added to each well. The plates were sealed (TopSeal A) and filter-bound radioactivity was measured with a scintillation counter (TopCount, Packard BioScience) using a 3-minute counting protocol.
Total specific binding (B0) was determined by subtracting the mean NSB from the mean maximum binding. NSB values were also subtracted from values from all other wells. […] Data was fitted to a four parameter logistic equation to determine the compound potency, which was expressed as pIC50 (negative log molar concentration inducing 50% inhibition of [^3H]-spiperone binding).

Counter-ions that a name gives are not always drawn.

T3 sequence (P14416 1-414 isoform P14416-2): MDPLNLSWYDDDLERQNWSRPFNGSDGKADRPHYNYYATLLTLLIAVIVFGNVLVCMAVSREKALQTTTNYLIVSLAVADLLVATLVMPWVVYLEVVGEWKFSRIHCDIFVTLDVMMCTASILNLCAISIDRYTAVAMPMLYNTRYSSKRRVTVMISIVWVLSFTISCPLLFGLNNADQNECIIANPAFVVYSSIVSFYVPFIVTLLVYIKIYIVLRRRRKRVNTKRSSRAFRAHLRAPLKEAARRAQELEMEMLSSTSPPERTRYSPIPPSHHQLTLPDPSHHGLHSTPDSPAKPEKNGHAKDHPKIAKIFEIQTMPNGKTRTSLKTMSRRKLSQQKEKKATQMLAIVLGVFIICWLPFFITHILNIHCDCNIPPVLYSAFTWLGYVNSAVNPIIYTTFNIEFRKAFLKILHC
T2 sequence (P08588 whole entry): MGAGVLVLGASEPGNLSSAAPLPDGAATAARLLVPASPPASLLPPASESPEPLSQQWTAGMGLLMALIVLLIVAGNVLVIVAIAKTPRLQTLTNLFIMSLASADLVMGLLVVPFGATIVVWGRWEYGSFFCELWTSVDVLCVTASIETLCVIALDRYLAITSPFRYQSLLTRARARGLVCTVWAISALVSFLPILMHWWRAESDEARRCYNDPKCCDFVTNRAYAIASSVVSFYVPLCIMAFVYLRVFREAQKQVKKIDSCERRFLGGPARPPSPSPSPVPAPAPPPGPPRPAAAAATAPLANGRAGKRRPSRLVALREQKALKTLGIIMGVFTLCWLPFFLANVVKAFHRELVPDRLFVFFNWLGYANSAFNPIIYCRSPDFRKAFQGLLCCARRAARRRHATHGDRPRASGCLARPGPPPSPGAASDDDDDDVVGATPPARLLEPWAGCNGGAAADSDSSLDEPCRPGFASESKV

`O=C(CCNCCc1ccccc1)N(CCNCCc1ccc(O)c2[nH]c(=O)sc12)C1CCCC1` [Example 2, N-Cyclopentyl-N-(2-{[2-(4-hydroxy-2-oxo-2,3-dihydro-1,3-benzothiazol-7-yl)ethyl]amino}ethyl)-N^3-(2-phenylethyl)-β-alaninamide bis-trifluoroacetic acid salt]: the values for the IC50 in test [1], in test [2] and in test [3] were 126 nM, 5010 nM and 251 nM, respectively.

On to `CC(C)(C)CN(CCNCCc1ccc(O)c2[nH]c(=O)sc12)C(=O)CCNCCc1ccccc1` [Example 6, N-(2,2-Dimethylpropyl)-N-(2-{[2-(4-hydroxy-2-oxo-2,3-dihydro-1,3-benzothiazol-7-yl)ethyl]amino}ethyl)-N^3-(2-phenylethyl)-β-alaninamide bis-trifluoroacetic acid salt], for which the IC50 in test [1] was 126 nM; in test [2], 794 nM; in test [3], 200 nM.

For the molecule `CC(C)(C)CN(CCNCCc1ccc(O)c2[nH]c(=O)sc12)C(=O)CCNCCc1cccc(Cl)c1` [Example 7, N^3-[2-(3-Chlorophenyl)ethyl]-N-(2,2-dimethylpropyl)-N-(2-{[2-(4-hydroxy-2-oxo-2,3-dihydro-1,3-benzothiazol-7-yl)ethyl]amino}ethyl)-β-alaninamide bis-trifluoroacetic acid salt], the IC50 in test [1] is 251 nM; in test [2] it was 3160 nM; in test [3], 316 nM.

As for `CC(C)(C)CN(CCNCCc1ccc(O)c2[nH]c(=O)sc12)C(=O)CCNCCc1ccc(Cl)cc1` [Example 8, N^3-[2-(4-Chlorophenyl)ethyl]-N-(2,2-dimethylpropyl)-N-(2-{[2-(4-hydroxy-2-oxo-2,3-dihydro-1,3-benzothiazol-7-yl)ethyl]amino}ethyl)-β-alaninamide bis-trifluoroacetic acid salt], the IC50 in test [1] is 501 nM; in test [2] it was 5010 nM; in test [3] it was 398 nM.

As to `CC(C)(C)CN(CCNCCc1ccc(O)c2[nH]c(=O)sc12)C(=O)CCNCCc1ccc(Cl)c(Cl)c1` [Example 9, N^3-[2-(3,4-Dichlorophenyl)ethyl]-N-(2,2-dimethylpropyl)-N-(2-{[2-(4-hydroxy-2-oxo-2,3-dihydro-1,3-benzothiazol-7-yl)ethyl]amino}ethyl)-β-alaninamide bis-trifluoroacetic acid salt], the IC50 in test [1] was 1000 nM; in test [2], 5010 nM; in test [3], 251 nM.

With `C[C@H](CNCCC(=O)N(CCNCCc1ccc(O)c2[nH]c(=O)sc12)CC(C)(C)C)c1ccccc1` [Example 11, N-(2,2-Dimethylpropyl)-N-(2-{[2-(4-hydroxy-2-oxo-2,3-dihydro-1,3-benzothiazol-7-yl)ethyl]amino}ethyl)-N^3-[(2S)-2-phenylpropyl]-β-alaninamide bis-trifluoroacetic acid salt], the IC50 in test [1] was 501 nM; in test [2] it was 7940 nM; in test [3] it was 501 nM.

For `O=C(CCNCCc1cccc(Cl)c1)N(CCNCCc1ccc(O)c2[nH]c(=O)sc12)C1CCCCC1` [Example 12, N^3-[2-(3-Chlorophenyl)ethyl]-N-cyclohexyl-N-(2-{[2-(4-hydroxy-2-oxo-2,3-dihydro-1,3-benzothiazol-7-yl)ethyl]amino}ethyl)-β-alaninamide bis-trifluoroacetic acid salt], the IC50 is 200 nM in test [1], 3160 nM in test [2] and 50.1 nM in test [3].

In the case of `O=C(CCNCCc1ccc(Cl)cc1)N(CCNCCc1ccc(O)c2[nH]c(=O)sc12)C1CCCCC1` [Example 13, N^3-[2-(4-Chlorophenyl)ethyl]-N-cyclohexyl-N-(2-{[2-(4-hydroxy-2-oxo-2,3-dihydro-1,3-benzothiazol-7-yl)ethyl]amino}ethyl)-β-alaninamide bis-trifluoroacetic acid salt], the IC50 in test [1] is 316 nM; in test [2], 3160 nM; in test [3] it was 126 nM.

Turning to `Cc1cccc(CCNCCC(=O)N(CCNCCc2ccc(O)c3[nH]c(=O)sc23)C2CCCCC2)c1` [Example 14, N-Cyclohexyl-N-(2-{[2-(4-hydroxy-2-oxo-2,3-dihydro-1,3-benzothiazol-7-yl)ethyl]amino}ethyl)-N^3-[2-(3-methylphenyl)ethyl]-β-alaninamide bis-trifluoroacetic acid salt], the results for the IC50 in test [1], in test [2] and in test [3] were 158 nM, 7940 nM and 501 nM, respectively.

Turning to `O=C(CCNCCc1cccc(F)c1)N(CCNCCc1ccc(O)c2[nH]c(=O)sc12)C1CCCCC1` [Example 15, N-Cyclohexyl-N^3-[2-(3-fluorophenyl)ethyl]-N-(2-{[2-(4-hydroxy-2-oxo-2,3-dihydro-1,3-benzothiazol-7-yl)ethyl]amino}ethyl)-β-alaninamide bis-trifluoroacetic acid salt], the “α1 bind pIC50” value in test [1] is listed as 6.7. The “β1 bind p IC50” value in test [2] is recorded as 5.2. Further, in test [3], the “D2 bind pIC50” value worked out at 6.4.
